Patent US20150283120A1, “ANTIBIOTIC METHODS AND COMPOSITIONS FOR BACTERIA INFECTIONS” (THE UNIVERSITY OF CHICAGO, priority 2012, published 2015)
Several values for one entry are separate records, joined by “and”; a condition that tells them apart may be missing. Identical values can stand only once. Entries after “also recorded” stand apart in the source; their conditions may differ. Like-named read-outs stand apart in the source and are kept apart here.

What was measured:
strain 923 [1] = conditions: strain 923, CLSI guidelines; cited from earlier work
diverse MRSA strains = assay: MIC of oxacillin with a single concentration of compound in multiple MRSA strains; format: cell-based, Staphylococcus aureus
Method: Testing potentiation of oxacillin by compounds in multiple MRSA strains: In order to be considered a synergistic agent in therapy of MRSA infection, it must be effective as a potentiator in diverse MRSA strains. To determine whether the oxacillin potentiators were effective against MRSA strains besides USA300, a single effective concentration of three compounds that were not known as antibiotics—gossypol, pyrvinium and clomiphene—were tested against multiple MRSA genetic backgrounds. Each compound was tested at a single optimal concentration, determined in the checkerboard assays, in combination with various concentrations of oxacillin. The strains included in this panel were from diverse genetic backgrounds as determined by multilocus sequence type (MLST) and contained a variety of SCCmec types. […] The MIC80 was […] for clomiphene, gossypol, and pyrvinium, respectively.

[2] = test system: MRSA strain USA300-isolate 923; assay: Checkerboard MIC testing of compounds with oxacillin; format: cell-based, Staphylococcus aureus; conditions: for oxacillin MIC: strain 923, 24 h
strain 11095 = assay: Checkerboard oxacillin + compound, strain 11095; set-up: MIC OX / MIC OX (+) / MIC cmpd alone: unit not given beside the values; conditions: for FICi: oxacillin + compound
[3] = test system: vraSR transcription (Pvra::lux); format: cell-based, Staphylococcus aureus
Summary of the method: (§1)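 Secondary screen: compound at 10 μM plus oxacillin 2 μg/mL, four biological replicates, luminescence read every 15 minutes. RG and RL are OD600 or max LU with compound plus oxacillin over pooled same-plate oxacillin controls; RL <0.8 repressor, >1.2 stimulator, 0.80-1.2 neutral.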

[4] = test system: vraSR expression (923 Pvra-lux); assay: Validation of test strain: luminescence as a function of oxacillin concentration; conditions: strain 923 Pvra-lux, luminescence 2 hours after induction
MRSA strain 8004-01 = assay: Checkerboard oxacillin + compound, strain 8004-01; set-up: MIC OX / MIC OX (+) / MIC cmpd alone: unit not given beside the values; conditions: strain 8004-1 (ST239)
strain 923 [5] = assay: Oxacillin MIC of strain 923 (assay development)
[6] = test system: vraSR operon (vra promoter, Pvra::lux); assay: Primary screen: Pvra-lux luminescence (vraSR induction); format: cell-based, Staphylococcus aureus; conditions: compound 10 μM, oxacillin 2 μg/mL; luminescence at 2 hours; library screened twice
VRS1 = assay: microbe, parasite or virus in culture; format: cell-based, Staphylococcus aureus; conditions: VRS1
Source text: (§2) As shown in the analysis of the checkerboard assays (Table 6), gossypol fully potentiated vancomycin (FIC i<0.5) in hVISA, VISA, VRS2 and VRS1. […] Clomiphene partially potentiated vancomycin in hVISA, VISA, and VRS1 and it fully potentiated in strain VRS2.

VRS2 = assay: microbe, parasite or virus in culture; format: cell-based, Staphylococcus aureus; conditions: VRS2
Source text: as §2

hVISA 2275 = assay: microbe, parasite or virus in culture; format: cell-based, Staphylococcus aureus; conditions: hVISA 2275
Source text: as §2

vraR transcription = assay: Tertiary screen: qRT-PCR of vraR in strain 923; format: cell-based, Staphylococcus aureus
[7] = test system: test strain (923 pPvra-lux); assay: Primary screen: growth (OD) of test strain with compound, with and without oxacillin; format: cell-based, Staphylococcus aureus; conditions: compound 10 μM, with and without oxacillin 2 μg/mL; OD at 24 h; library screened twice
[8] = test system: MRSA strain USA300 Pvra-lux; format: cell-based, Staphylococcus aureus; conditions: compound 10 μM + oxacillin 2 μg/mL
Summary of the method: as §1

VISA 2283 = assay: microbe, parasite or virus in culture; format: cell-based, Staphylococcus aureus; conditions: VISA 2283; with vancomycin; listed as Pyr
Source text: as §2

[9] = Staphylococcus aureus, compound alone, read-out: MIC compound
[10] = oxacillin in combination with compound

Cc1onc(-c2ccccc2)c1C(=O)N[C@@H]1C(=O)N2[C@@H]1SC(C)(C)[C@@H]2C(=O)O [oxacillin]
24-h oxacillin MIC (strain 923 [1]): 16 to 32 µg/mL | MIC (diverse MRSA strains; Staphylococcus aureus, MRSA, in the absence of compound, range over strains, read-out: MICs of oxacillin for the strains of the panel): 2 to 256 µg/mL | MIC (diverse MRSA strains; Staphylococcus aureus, MRSA, isolate Q2461 (SCCmec VT, ST 59), Ox alone, read-out: MIC Ox): 8 µg/mL | MIC50 (diverse MRSA strains; Staphylococcus aureus, MRSA, panel of strains, absence of compound, read-out: MIC50 of oxacillin): 16 µg/mL | MIC (diverse MRSA strains; Staphylococcus aureus, isolate 923 (SCCmec IV, ST 8), Ox alone, read-out: MIC Ox): 16 µg/mL | MIC (diverse MRSA strains; Staphylococcus aureus, isolate 1176 (SCCmec II, ST 231), Ox alone, read-out: MIC Ox): 32 µg/mL | MIC (diverse MRSA strains; Staphylococcus aureus, isolate 2169 (SCCmec IV, ST 72), Ox alone, read-out: MIC Ox): 16 µg/mL | MIC (diverse MRSA strains; Staphylococcus aureus, isolate 8004-01 (SCCmec III, ST 239), Ox alone, read-out: MIC Ox): 256 µg/mL | MIC (diverse MRSA strains; Staphylococcus aureus, isolate 8010-01 (SCCmec IV, ST 8), Ox alone, read-out: MIC Ox): 8 µg/mL | MIC (diverse MRSA strains; Staphylococcus aureus, isolate 8227-01 (SCCmec IV, ST 87), Ox alone, read-out: MIC Ox): 4 µg/mL | MIC (diverse MRSA strains; Staphylococcus aureus, isolate 11095 (SCCmec II, ST 105), Ox alone, read-out: MIC Ox): 128 µg/mL | MIC (diverse MRSA strains; Staphylococcus aureus, isolate 13113 (SCCmec II, ST 5), Ox alone, read-out: MIC Ox): 8 µg/mL | MIC (diverse MRSA strains; Staphylococcus aureus, isolate 13354 (SCCmec IV, ST 5), Ox alone, read-out: MIC Ox): 8 µg/mL | MIC (diverse MRSA strains; Staphylococcus aureus, isolate 14315 (SCCmec IV, ST 1), Ox alone, read-out: MIC Ox): 16 µg/mL | MIC50 (diverse MRSA strains; Staphylococcus aureus, panel of 11 MRSA isolates, Ox alone, read-out: MIC 50 of Ox): 16 µg/mL | MIC80 (diverse MRSA strains; Staphylococcus aureus, panel of 11 MRSA isolates, Ox alone, read-out: MIC 80 of Ox): 128 µg/mL | MIC ([2]; Staphylococcus aureus, strain 923, oxacillin alone (Men 0 μM)): 32 µg/mL | MIC OX (strain 11095; oxacillin alone): 512 | average LU of pooled positive controls ([3]; grown in the presence of oxacillin 2 μg/mL, all runs of the secondary assay): 144 (SD+/−16) LU | induction of Pvra::lux ([3]; oxacillin 2 μg/mL against no oxacillin): 2.7 fold | minimum concentration sufficient for maximal vraSR expression [4]: 2 µg/mL | MIC OX (MRSA strain 8004-01; oxacillin alone, listed as OX): 512 and >256 | MIC (strain 923 [5]; Staphylococcus aureus, 923, read-out: MIC of oxacillin, 923 containing pPvra-lux, 96-well format): 5 µg/mL | MIC (strain 923 [5]; Staphylococcus aureus, 923, read-out: MIC of oxacillin, strain 923, 96-well format): 8 µg/mL

Cc1cc(/C=C/c2ccc3cc(N(C)C)ccc3[n+]2C)c(C)n1-c1ccccc1 [Pyrvinium pamoate, 2-[(E)-2-(2,5-Dimethyl-1-phenylpyrrol-3-yl)ethenyl]-N,N,1-trimethylquinolin-1-ium-6-amine]
primary screen category by effect on vraSR (Pvra-lux luminescence) [6]: repressed Pvra::lux in both primary screens | MIC (VRS1; [9]): 2.24 µg/mL | fold decrease Van MIC (VRS1): 64 fold | MIC (VRS2; [9]): 1.12 µg/mL | Synergy category (VRS2; with vancomycin, listed as Pyr): synergistic (fully potentiated vancomycin (FIC i<0.5)) | MIC (hVISA 2275; [9]): 16 µg/mL | FICi V + compound (hVISA 2275): 0.54 | Van FIC (hVISA 2275): 0.50 | compound FIC (hVISA 2275): 0.04 | fold decrease Van MIC (hVISA 2275): 2 fold | MIC (in combination) compound+ (hVISA 2275; compound MIC with the indicated Van concentration): 0.56 | Synergy category (hVISA 2275; with vancomycin, listed as Pyr): partial (partially potentiated vancomycin (FIC i>0.5 and <1.0)) | MIC 80 of Ox in presence of compound (diverse MRSA strains; panel of 11 MRSA isolates, clom 3.8 μM, gos 15 μM, pyr 0.5 μM): 32 µg/mL | MIC50 of oxacillin in the presence of compound (diverse MRSA strains; panel of strains): 1 µg/mL | MIC80 of oxacillin in the presence of compound (diverse MRSA strains; panel of strains): 0.032 µg/mL | fold decrease in the oxacillin MIC50 (diverse MRSA strains; panel of strains, with compound against oxacillin alone): 16 fold | oxacillin MIC ([2]; compound 0.25 μM): 16 µg/mL | oxacillin MIC ([2]; compound 0.5 μM): 4 µg/mL | oxacillin MIC ([2]; compound 1 μM): 2 µg/mL | change of the MIC of oxacillin with compound concentration ([2]; strain 923, checkerboard): dose dependent decrease | bactericidal effect of oxacillin (MBC, >99.9% killing) ([2]; strain 923, wells with FICi≦0.5 spotted on TSA): increased the bactericidal effect of oxacillin | classification of lux screen result against qRT-PCR (true/false repressor or stimulator) (vraR transcription; in the presence of oxacillin): true vraSR expression repressors | Effect on vraSR Transcription: With oxacillin (vraR transcription; qRT-PCR of vraR, compound 10 μM + oxacillin 2 μg/mL): vraR inhibitors; also recorded: repress | FIC Compound (strain 11095): 0.25 | FIC Ox (strain 11095): .0078 | MIC cmpd alone (strain 11095): 16 | fold decrease of the oxacillin MIC (strain 11095): 128 fold | FICi (strain 11095): 0.26 | FICi (strain 11095; listed as Pyr): .26 | MIC OX (+) (strain 11095; [10]): 4 | primary screen category by effect on growth of MRSA strain 923 [7]: strong growth inhibitors on their own | OD600 category [8]: inhibited (of <0.8 were classified as oxacillin synergists or potentiators) | RG avg (relative growth) ([8]; ratio of OD600 to oxacillin alone, four runs): 0.39 | Effect on vraSR transcription ([3]; compound 10 μM + oxacillin 2 μg/mL): repress (“vraSR repressors” (mean RL of <0.8)) | RL avg (relative luminescence) ([3]; compound 10 μM + oxacillin 2 μg/mL, ratio of LU to oxacillin alone, four runs): 0.31 | MIC cmpd alone (MRSA strain 8004-01): >4 | MIC cmpd + (MRSA strain 8004-01; compound in combination with oxacillin): >4 µg/mL | FICi (MRSA strain 8004-01; oxacillin + compound): 7 | MIC OX (+) (MRSA strain 8004-01; [10]): >256 | Synergy category (VISA 2283): non syn
